Among the data in ChEMBL document CHEMBL3860082, “Effect of lysine methylation and acetylation on the RNA recognition and cellular uptake of Tat-derived peptides” (Bioorg Med Chem, 2016) are Kd, Activity and Drug uptake values, retold here.

Data set [1] is described as follows: Competitive binding affinity to fluorescein-labeled HIV TAR RNA in presence of Escherichia coli tRNA by electrophoretic mobility shift assay. The following applies: read-out: Kd(app). Further details: species or system Human immunodeficiency virus; call rule not given here.
A short description of data set [2]: Cytotoxicity against human Jurkat cells assessed as reduction in cell viability at 120 uM after 4 hrs by WST1 assay. It counts as toxicity, cell-based. Background: Tetrazolium dyes change colour on reduction, which living cells bring about.
Data set [3] can be described thus: Drug uptake in human Jurkat cells assessed as mean fluorescence intensity at 120 uM after 15 mins in presence of bovine serum by propidium iodide staining based FACS analysis. It counts as ADME, cell-based. The following applies: 0.25 h. In general terms: Flow cytometry measures light scatter and fluorescence of single cells or particles in a stream.
The nature of data set [4]: Drug uptake in human Jurkat cells assessed as mean fluorescence intensity at 7 uM after 15 mins in presence of bovine serum by propidium iodide staining based FACS analysis. It counts as ADME, cell-based. To be noted: 0.25 h.

For `CC(=O)NCCCC[C@H](NC(=O)[C@H](CCCNC(=N)N)NC(=O)CNC(=O)[C@H](Cc1ccc(O)cc1)NC(C)=O)C(=O)N[C@@H](CCCCN)C(=O)N[C@@H](CCCNC(=N)N)C(=O)N[C@@H](CCCNC(=N)N)C(=O)N[C@@H](CCC(N)=O)C(=O)N[C@@H](CCCNC(=N)N)C(=O)N[C@@H](CCCNC(=N)N)C(=O)N[C@@H](CCCNC(=N)N)C(N)=O`, the Kd in data set [1] turned out to be 437 nM.

As for `CNCCCC[C@H](NC(=O)[C@H](CCCNC(=N)N)NC(=O)CNC(=O)[C@H](Cc1ccc(O)cc1)NC(C)=O)C(=O)N[C@@H](CCCCN)C(=O)N[C@@H](CCCNC(=N)N)C(=O)N[C@@H](CCCNC(=N)N)C(=O)N[C@@H](CCC(N)=O)C(=O)N[C@@H](CCCNC(=N)N)C(=O)N[C@@H](CCCNC(=N)N)C(=O)N[C@@H](CCCNC(=N)N)C(N)=O`, the Kd in data set [1] was 264 nM.

For `CC(=O)NCCCC[C@H](NC(=O)[C@H](CCCCN)NC(=O)[C@H](CCCNC(=N)N)NC(=O)CNC(=O)[C@H](Cc1ccc(O)cc1)NC(C)=O)C(=O)N[C@@H](CCCNC(=N)N)C(=O)N[C@@H](CCCNC(=N)N)C(=O)N[C@@H](CCC(N)=O)C(=O)N[C@@H](CCCNC(=N)N)C(=O)N[C@@H](CCCNC(=N)N)C(=O)N[C@@H](CCCNC(=N)N)C(N)=O`, the Kd in data set [1] came to 371 nM.

`C[N+](C)(C)CCCC[C@H](NC(=O)[C@H](CCCCN)NC(=O)[C@H](CCCNC(=N)N)NC(=O)CNC(=O)[C@H](Cc1ccc(O)cc1)NC(=O)CCNC(=O)c1ccc2c(c1)C1(OC2=O)c2ccc(O)cc2Oc2cc(O)ccc21)C(=O)N[C@@H](CCCNC(=N)N)C(=O)N[C@@H](CCCNC(=N)N)C(=O)N[C@@H](CCC(N)=O)C(=O)N[C@@H](CCCNC(=N)N)C(=O)N[C@@H](CCCNC(=N)N)C(=O)N[C@@H](CCCNC(=N)N)C(=O)O`: the Activity result in data set [2] is listed as “Non-Toxic”. In data set [3], the Drug uptake result was “Active”.

As for `CC(=O)N[C@@H](Cc1ccc(O)cc1)C(=O)NCC(=O)N[C@@H](CCCNC(=N)N)C(=O)N[C@@H](CCCC[N+](C)(C)C)C(=O)N[C@@H](CCCCN)C(=O)N[C@@H](CCCNC(=N)N)C(=O)N[C@@H](CCCNC(=N)N)C(=O)N[C@@H](CCC(N)=O)C(=O)N[C@@H](CCCNC(=N)N)C(=O)N[C@@H](CCCNC(=N)N)C(=O)N[C@@H](CCCNC(=N)N)C(N)=O`, in data set [1], the Kd is 168 nM.

Consider `CN(C)CCCC[C@H](NC(=O)[C@H](CCCNC(=N)N)NC(=O)CNC(=O)[C@H](Cc1ccc(O)cc1)NC(=O)CCNC(=O)c1ccc2c(c1)C1(OC2=O)c2ccc(O)cc2Oc2cc(O)ccc21)C(=O)N[C@@H](CCCCN)C(=O)N[C@@H](CCCNC(=N)N)C(=O)N[C@@H](CCCNC(=N)N)C(=O)N[C@@H](CCC(N)=O)C(=O)N[C@@H](CCCNC(=N)N)C(=O)N[C@@H](CCCNC(=N)N)C(=O)N[C@@H](CCCNC(=N)N)C(=O)O`, for which the Activity result in data set [2] is “Non-Toxic”. Besides, the Drug uptake result in data set [3] and in data set [4] was “Active” each time.

On to `N=C(N)NCCC[C@H](NC(=O)[C@H](CCCNC(=N)N)NC(=O)[C@H](CCCNC(=N)N)NC(=O)[C@H](CCC(N)=O)NC(=O)[C@H](CCCNC(=N)N)NC(=O)[C@H](CCCNC(=N)N)NC(=O)[C@H](CCCCN)NC(=O)[C@H](CCCCN)NC(=O)[C@H](CCCNC(=N)N)NC(=O)CNC(=O)[C@H](Cc1ccc(O)cc1)NC(=O)CCNC(=O)c1ccc2c(c1)C1(OC2=O)c2ccc(O)cc2Oc2cc(O)ccc21)C(N)=O`, for which the Activity entry in data set [2] is “Non-Toxic”. Besides, the Drug uptake result in data set [3] and in data set [4] was “Active” in each case.

For the compound `CNCCCC[C@H](NC(=O)[C@H](CCCCN)NC(=O)[C@H](CCCNC(=N)N)NC(=O)CNC(=O)[C@H](Cc1ccc(O)cc1)NC(=O)CCNC(=O)c1ccc2c(c1)C1(OC2=O)c2ccc(O)cc2Oc2cc(O)ccc21)C(=O)N[C@@H](CCCNC(=N)N)C(=O)N[C@@H](CCCNC(=N)N)C(=O)N[C@@H](CCC(N)=O)C(=O)N[C@@H](CCCNC(=N)N)C(=O)N[C@@H](CCCNC(=N)N)C(=O)N[C@@H](CCCNC(=N)N)C(=O)O`, the Activity entry in data set [2] is “Non-Toxic”.

For `CN(C)CCCC[C@H](NC(=O)[C@H](CCCCN)NC(=O)[C@H](CCCNC(=N)N)NC(=O)CNC(=O)[C@H](Cc1ccc(O)cc1)NC(=O)CCNC(=O)c1ccc2c(c1)C1(OC2=O)c2ccc(O)cc2Oc2cc(O)ccc21)C(=O)N[C@@H](CCCNC(=N)N)C(=O)N[C@@H](CCCNC(=N)N)C(=O)N[C@@H](CCC(N)=O)C(=O)N[C@@H](CCCNC(=N)N)C(=O)N[C@@H](CCCNC(=N)N)C(=O)N[C@@H](CCCNC(=N)N)C(=O)O`, the Activity result in data set [2] was “Non-Toxic”. In addition, in data set [3], the Drug uptake result is “Active”.

As to `CC(=O)NCCCC[C@H](NC(=O)[C@H](CCCNC(=N)N)NC(=O)CNC(=O)[C@H](Cc1ccc(O)cc1)NC(=O)CCNC(=O)c1ccc2c(c1)C1(OC2=O)c2ccc(O)cc2Oc2cc(O)ccc21)C(=O)N[C@@H](CCCCN)C(=O)N[C@@H](CCCNC(=N)N)C(=O)N[C@@H](CCCNC(=N)N)C(=O)N[C@@H](CCC(N)=O)C(=O)N[C@@H](CCCNC(=N)N)C(=O)N[C@@H](CCCNC(=N)N)C(=O)N[C@@H](CCCNC(=N)N)C(=O)O`, the Activity entry in data set [2] is listed as “Non-Toxic”.

For `CNCCCC[C@H](NC(=O)[C@H](CCCNC(=N)N)NC(=O)CNC(=O)[C@H](Cc1ccc(O)cc1)NC(=O)CCNC(=O)c1ccc2c(c1)C1(OC2=O)c2ccc(O)cc2Oc2cc(O)ccc21)C(=O)N[C@@H](CCCCN)C(=O)N[C@@H](CCCNC(=N)N)C(=O)N[C@@H](CCCNC(=N)N)C(=O)N[C@@H](CCC(N)=O)C(=O)N[C@@H](CCCNC(=N)N)C(=O)N[C@@H](CCCNC(=N)N)C(=O)N[C@@H](CCCNC(=N)N)C(=O)O`, the Activity entry in data set [2] was “Non-Toxic”. The Drug uptake result in data set [3] and in data set [4] was “Active” in each case.

Consider `CC(=O)N[C@@H](Cc1ccc(O)cc1)C(=O)NCC(=O)N[C@@H](CCCNC(=N)N)C(=O)N[C@@H](CCCCN)C(=O)N[C@@H](CCCC[N+](C)(C)C)C(=O)N[C@@H](CCCNC(=N)N)C(=O)N[C@@H](CCCNC(=N)N)C(=O)N[C@@H](CCC(N)=O)C(=O)N[C@@H](CCCNC(=N)N)C(=O)N[C@@H](CCCNC(=N)N)C(=O)N[C@@H](CCCNC(=N)N)C(N)=O`, for which, in data set [1], the Kd was 599 nM.

`CC(=O)NCCCC[C@H](NC(=O)[C@H](CCCCN)NC(=O)[C@H](CCCNC(=N)N)NC(=O)CNC(=O)[C@H](Cc1ccc(O)cc1)NC(=O)CCNC(=O)c1ccc2c(c1)C1(OC2=O)c2ccc(O)cc2Oc2cc(O)ccc21)C(=O)N[C@@H](CCCNC(=N)N)C(=O)N[C@@H](CCCNC(=N)N)C(=O)N[C@@H](CCC(N)=O)C(=O)N[C@@H](CCCNC(=N)N)C(=O)N[C@@H](CCCNC(=N)N)C(=O)N[C@@H](CCCNC(=N)N)C(=O)O`: the Activity result in data set [2] is given as “Non-Toxic”.

For `CC(=O)N[C@@H](Cc1ccc(O)cc1)C(=O)NCC(=O)N[C@@H](CCCNC(=N)N)C(=O)N[C@@H](CCCCN(C)C)C(=O)N[C@@H](CCCCN)C(=O)N[C@@H](CCCNC(=N)N)C(=O)N[C@@H](CCCNC(=N)N)C(=O)N[C@@H](CCC(N)=O)C(=O)N[C@@H](CCCNC(=N)N)C(=O)N[C@@H](CCCNC(=N)N)C(=O)N[C@@H](CCCNC(=N)N)C(N)=O`, the Kd in data set [1] was 183 nM.

Take `CC(=O)N[C@@H](Cc1ccc(O)cc1)C(=O)NCC(=O)N[C@@H](CCCNC(=N)N)C(=O)N[C@@H](CCCCN)C(=O)N[C@@H](CCCCN(C)C)C(=O)N[C@@H](CCCNC(=N)N)C(=O)N[C@@H](CCCNC(=N)N)C(=O)N[C@@H](CCC(N)=O)C(=O)N[C@@H](CCCNC(=N)N)C(=O)N[C@@H](CCCNC(=N)N)C(=O)N[C@@H](CCCNC(=N)N)C(N)=O`: the Kd in data set [1] was found to be 280 nM.

As for `C[N+](C)(C)CCCC[C@H](NC(=O)[C@H](CCCNC(=N)N)NC(=O)CNC(=O)[C@H](Cc1ccc(O)cc1)NC(=O)CCNC(=O)c1ccc2c(c1)C1(OC2=O)c2ccc(O)cc2Oc2cc(O)ccc21)C(=O)N[C@@H](CCCCN)C(=O)N[C@@H](CCCNC(=N)N)C(=O)N[C@@H](CCCNC(=N)N)C(=O)N[C@@H](CCC(N)=O)C(=O)N[C@@H](CCCNC(=N)N)C(=O)N[C@@H](CCCNC(=N)N)C(=O)N[C@@H](CCCNC(=N)N)C(=O)O`, the Activity entry in data set [2] is listed as “Non-Toxic”. Moreover, the Drug uptake result in data set [3] and in data set [4] was “Active” each time.

With `CNCCCC[C@H](NC(=O)[C@H](CCCCN)NC(=O)[C@H](CCCNC(=N)N)NC(=O)CNC(=O)[C@H](Cc1ccc(O)cc1)NC(C)=O)C(=O)N[C@@H](CCCNC(=N)N)C(=O)N[C@@H](CCCNC(=N)N)C(=O)N[C@@H](CCC(N)=O)C(=O)N[C@@H](CCCNC(=N)N)C(=O)N[C@@H](CCCNC(=N)N)C(=O)N[C@@H](CCCNC(=N)N)C(N)=O`, the Kd in data set [1] turned out to be 410 nM.
